Experimental data from the METLIN SMRT retention time set (Domingo-Almenara et al. 2019).

Assay: gradient 5% acetonitrile 3 min, to 50% in 2 min, to 85% in 15 min, held 3 min, 100 µL/min
Settings: column: Zorbax Extend-C18 2.1 x 50 mm; eluents: water / acetonitrile, 0.1% formic acid
In short: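 Retention time was recorded from adduct peaks, which were picked computationally and each inspected manually. Pure standards ran in mixtures of ~100 molecules on HPLC coupled to a quadrupole time-of-flight mass spectrometer, in positive and negative ionization mode, through a Zorbax Extend-C18 column (2.1 × 50 mm, 1.8 μm) at 100 μL/min. Eluents were water and acetonitrile, each with 0.1% formic acid.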

COc1ccccc1-c1cnn2c(Nc3ccc(NC(C)=O)cc3)cc(C)nc12
RP-LC retention time: 593 s

CCCC(NC(=O)c1cccc(Cl)c1)C(=O)Nc1nc2ccccc2[nH]1 (stereo not drawn)
RP-LC retention time: 742 s

CCCNC(=O)C1CCCN(c2ccc(SCC(=O)Nc3cc(OC)cc(OC)c3)nn2)C1 (stereo not drawn)
RP-LC retention time: 673 s

COc1ccc(-c2nc3cnccn3c2Nc2ccc(C(=O)O)cc2)cc1
RP-LC retention time: 662 s

O=C(NCCn1cnc2ccccc2c1=O)C1CC(=O)N(c2n[nH]c3ccccc23)C1 (stereo not drawn)
RP-LC retention time: 632 s

Cc1ccc(CNC(=O)C2(C)CN(S(C)(=O)=O)CC(=O)N2Cc2cccc(C)c2)cc1 (stereo not drawn)
RP-LC retention time: 868 s

CCSc1ccccc1C(=O)N1CCN(c2ccc(-c3ccccn3)nn2)CC1
RP-LC retention time: 649 s

COc1ccc(C(=O)N2CCN3CCS(=O)(=O)N(C4CC4)C(=O)C3C2)c(OC)n1 (stereo not drawn)
RP-LC retention time: 732 s

Cc1ccn2cc(-c3ccc(NC(=O)c4cccc(C(F)(F)F)c4)cc3)nc2n1
RP-LC retention time: 716 s

O=C(NCCCN1CCOCC1)c1ccc(-c2cnc(NC3CCCCC3)nc2)cc1
RP-LC retention time: 655 s

Cc1ccccc1-c1noc(Cc2nnc(-c3cccc(Br)c3)o2)n1
RP-LC retention time: 853 s

O=C1CN(C(=O)Cc2ccc(OC(F)(F)F)cc2)C2(CCCC2)CN1
RP-LC retention time: 790 s

Cc1cc(C)cc(C(=O)Nc2ccc3c(c2)Sc2ncccc2C(=O)N3C(C)C)c1
RP-LC retention time: 1030 s

O=C(NCc1ccc(F)c(Cl)c1)c1cn(-c2ccc(NC(=O)C3CC3)cn2)cn1
RP-LC retention time: 801 s

CCc1ccc(NC(=O)N2CCCC(Cn3cnc4cccnc43)C2)cc1 (stereo not drawn)
RP-LC retention time: 733 s

COc1ccc(-c2nc(-c3cccc(-c4ccn[nH]4)c3)no2)cc1F
RP-LC retention time: 978 s

CCCc1cc(C2CCCN2C(=O)Nc2ccc(C)cc2)no1 (stereo not drawn)
RP-LC retention time: 946 s

Cc1ccc(-c2csc(-n3nc(C)c(CC(=O)N4CCCCCC4)c3C)n2)cc1
RP-LC retention time: 1270 s

CNC(=O)N1CCC(C2CCN(C(=O)c3ccc(Cl)s3)C2)CC1 (stereo not drawn)
RP-LC retention time: 705 s

COc1ccc(NC(=O)N2C[C@H]3C[C@H](C2)[C@H]2CCCC(=O)N2C3)cc1
RP-LC retention time: 620 s

Cn1nc(-c2nc(-c3cccc(Cl)c3)no2)ccc1=O
RP-LC retention time: 942 s

Cc1ccc(-n2nc(C)c3c(C)c(CCC(=O)N4CCN(c5ccccn5)CC4)c(C)nc32)cc1
RP-LC retention time: 756 s

O=C(c1cc2ccccc2[nH]1)N1CCCC(c2nnc(C(F)(F)F)o2)C1 (stereo not drawn)
RP-LC retention time: 857 s

CCC(=O)N1c2ccccc2NC2=C(C(=O)CC(C)(C)C2)C1c1ccc(C#N)cc1 (stereo not drawn)
RP-LC retention time: 797 s

O=C(NC1CCN(c2cc(-c3ccc(F)cc3)[nH]n2)C1)c1ccccc1Br (stereo not drawn)
RP-LC retention time: 668 s

N#Cc1ccc(C(=O)NCc2cnoc2-c2ccc(F)cc2)cc1
RP-LC retention time: 848 s

Cc1cc(S(=O)(=O)N2CC(N(Cc3ccncc3)CC3CC3)C2)ccc1F
RP-LC retention time: 709 s

CN(C)CCn1nnc2cc(-c3noc(-c4cccc(F)c4)n3)ccc21
RP-LC retention time: 676 s

O=C(c1csc(S(=O)(=O)N2CCC(C(=O)N3CCCCC3)CC2)c1)N1CCOCC1
RP-LC retention time: 689 s

COCCN1C(=O)[C@H]2CN(Cc3cccc(C#N)c3)C[C@H]2C1=O
RP-LC retention time: 607 s

CCCn1cc(C(=O)N2CCCC2)c2nn(-c3ccccc3)c(=O)c-2c1
RP-LC retention time: 664 s

COc1cn2c(cc1=O)C(=O)N(CCNC(=O)c1ccc(Br)o1)CC2
RP-LC retention time: 556 s

CCCn1c(=O)sc2cc(S(=O)(=O)N3CCC(C(=O)Nc4cccc(CC)c4)CC3)ccc21
RP-LC retention time: 969 s

CCCN(C(=O)C1CCC(C)CC1)c1nc(-c2ccccc2)cs1 (stereo not drawn)
RP-LC retention time: 748 s

CCC1Oc2ccc(S(=O)(=O)N3CCC(C(=O)Nc4ccc(F)c(Cl)c4)CC3)cc2NC1=O (stereo not drawn)
RP-LC retention time: 969 s

Cc1ccc(CNC(=O)Cn2ccnc2-c2ccnc(N3CCCC3)c2)cc1
RP-LC retention time: 602 s

CCOC(=O)c1ccc(N2C=C(C#N)S(=O)(=O)c3ccccc32)cc1
RP-LC retention time: 917 s

CCOC(=O)N1CCC(NS(=O)(=O)C2CC2)CC1
RP-LC retention time: 632 s

CN1C(=O)[C@H]2CN(Cc3ccc(Cl)cc3F)C[C@H]2C1=O
RP-LC retention time: 644 s

O=C1NC(=O)[C@@H](c2cn3c4c(cccc24)CCC3)[C@@H]1c1c[nH]c2ccccc12
RP-LC retention time: 947 s

CCN1C(=O)c2cc(S(=O)(=O)Nc3cc(F)cc(F)c3)ccc2Oc2cccnc21
RP-LC retention time: 1040 s

Cc1nc(Cn2cccc2C(=O)Nc2ccc(C(C)C)cc2)no1
RP-LC retention time: 982 s

Cc1cc(C)cc(NC(=O)C2CCN(S(=O)(=O)c3ccc4c(c3)sc(=O)n4C(C)C)CC2)c1
RP-LC retention time: 1070 s

COc1ccc(-c2noc(Cc3nnc(-c4ccccc4)o3)n2)cc1OC
RP-LC retention time: 949 s

Cn1c(-c2cccs2)c(CNC(=O)Nc2ccc3c(c2)OCO3)c2ccccc21
RP-LC retention time: 1010 s

CNC(=O)C1=CCN(C(=O)NC2CCCC2)CC1
RP-LC retention time: 615 s

CCn1c(=O)c(N2CCN(C(=O)Nc3cc(Cl)c(OC)cc3OC)CC2)nc2cccnc21
RP-LC retention time: 982 s

CCOc1ccc(-c2csc(NC(=O)CS(=O)(=O)c3ccc(Cl)cc3)n2)cc1
RP-LC retention time: 1070 s

N#Cc1ccc(-c2nc(-c3ccc(S(=O)(=O)N4CCC(C(=O)N5CCCC5)CC4)cc3)no2)cc1
RP-LC retention time: 947 s

Cc1ccc(-c2noc(-c3ccc(=O)n(Cc4cccc(F)c4)n3)n2)cc1
RP-LC retention time: 1150 s

O=C(c1ccc(Br)o1)N1CCC(c2nnc(-c3ccco3)s2)CC1
RP-LC retention time: 765 s

O=C(c1nc2ccccn2c1-c1ccsc1)N1CCCC1
RP-LC retention time: 622 s

CN(C)C1CCCN(Cc2c(F)cccc2Cl)C1=O (stereo not drawn)
RP-LC retention time: 604 s

O=C(NCc1ccccc1)NC1CCN(C(=O)N2C[C@H]3C[C@H](C2)[C@H]2CCCC(=O)N2C3)CC1
RP-LC retention time: 660 s

CN(Cc1ccccc1)C(=O)C1CCCN(c2nnc(N3CCCC3=O)s2)C1 (stereo not drawn)
RP-LC retention time: 718 s

Cc1cc(N(C)C)nc(NCCNC(=O)C(C)(C)Oc2ccc(Cl)cc2)n1
RP-LC retention time: 598 s

CSc1cccc(NC(=O)NC2CCN(c3ccc(C)c(C)c3)C2=O)c1 (stereo not drawn)
RP-LC retention time: 929 s

CN(CC(=O)N1CCN(c2ccc(Cl)cc2)CC1)S(=O)(=O)c1c[nH]c(C(=O)N2CCCC2)c1
RP-LC retention time: 837 s

CCOC(=O)c1noc2nc(C)nc(NCCCN3CCN(c4cc(Cl)ccc4C)CC3)c12
RP-LC retention time: 948 s

O=C(NCC(c1ccco1)N1CCN(c2ccc(F)cc2)CC1)c1ccsc1 (stereo not drawn)
RP-LC retention time: 603 s

CCCCN1C(=O)C(C)(C(=O)NCc2cccc(C)c2)Oc2cccnc21 (stereo not drawn)
RP-LC retention time: 1030 s

COc1ccc(NC(=O)Cn2c(C)cc(-c3nnc(-c4ccc(F)cc4)o3)c2C)cc1
RP-LC retention time: 952 s

FC1(F)C[C@@H](CN2CCOCC2)N(Cc2cn[nH]c2-c2ccccc2)C1
RP-LC retention time: 765 s

CCc1nnc(-c2ccc3ccn(CC(=O)NCc4cc(OC)c(OC)c(OC)c4)c3c2)o1
RP-LC retention time: 760 s

CCC(=O)N1CCc2cc(S(=O)(=O)CCC(=O)N3CC(C)CC(C)C3)ccc21 (stereo not drawn)
RP-LC retention time: 871 s

O=C(NCC1CCN(C(=O)c2cc3ccccc3o2)CC1)c1cc(Cl)ccc1Cl
RP-LC retention time: 841 s

Cc1cccc(Nc2ccc(N3CCN(C(=O)c4ccc(Br)o4)CC3)nn2)n1
RP-LC retention time: 578 s

CC1CCN(c2ccc(-c3noc(CN4CCN(CC(=O)NC(C)C)CC4)n3)cn2)CC1
RP-LC retention time: 646 s

O=C(Cn1ccc2sccc2c1=O)Nc1cc(F)cc(F)c1
RP-LC retention time: 784 s

CCn1c(=O)c(NCc2cc(F)ccc2F)nc2ccncc21
RP-LC retention time: 568 s

O=S(=O)(c1ccc(Cl)s1)N1CC(c2nc(-c3ncccn3)no2)C1
RP-LC retention time: 725 s

CC(C)NC(=O)N(C1CC1)C1CCOC2(CCN(C(=O)c3ccco3)CC2)C1 (stereo not drawn)
RP-LC retention time: 707 s

CCOc1ccccc1C(=O)N1CCN(c2nnc(SCC(=O)NC(C)C)s2)CC1
RP-LC retention time: 673 s

Cc1ccc(Nc2c(-c3ccccc3)nc3cnccn23)c(Br)c1
RP-LC retention time: 1040 s

CCc1cccc(NC(=O)Cc2nc(C)c(C(=O)NCC(C)C)s2)c1
RP-LC retention time: 886 s

CC(C)CN1CCn2cc(S(=O)(=O)NCc3ccccc3F)cc2C1=O
RP-LC retention time: 792 s

Cc1cc(-c2nnc(-c3ccccc3)o2)c(C)n1CC(=O)Nc1ccccc1F
RP-LC retention time: 952 s

CCNc1cc(N2CCC(CCC(=O)NCCC(C)C)CC2)ncn1
RP-LC retention time: 538 s

Cc1cc(C(=O)NCCn2ncc3c(=O)n(Cc4ccc(F)cc4)cnc32)c(C)o1
RP-LC retention time: 705 s

CC1CCN(CCCNC(=O)C2CCN(S(=O)(=O)c3ccc4c(c3)sc(=O)n4C)CC2)CC1
RP-LC retention time: 1060 s

CCOC(=O)C1=C(C)NC(=O)NC1c1c(F)cccc1Cl (stereo not drawn)
RP-LC retention time: 724 s

COc1ccccc1C(O)Cn1ccn2nc(-c3ccc(C)c(C)c3)cc2c1=O (stereo not drawn)
RP-LC retention time: 982 s

CCN(CC)c1ccc(NC(=O)C2Cc3cc(S(=O)(=O)N4CCCC4)ccc3N2C(C)=O)c(C)c1 (stereo not drawn)
RP-LC retention time: 676 s

COc1ccc(-c2cc3c(=O)n(Cc4noc(CN5CCCC(C)C5)n4)ccn3n2)cc1 (stereo not drawn)
RP-LC retention time: 675 s

CCc1nc2cc(N3CCCC(C(=O)NCC(C)C)C3)cnc2nc1CC (stereo not drawn)
RP-LC retention time: 790 s

O=C(Cc1cccs1)NC1CC(=O)N(Cc2ccccc2)C1 (stereo not drawn)
RP-LC retention time: 712 s

Cc1ccc(-c2cc3c4nnc(SCC(=O)Nc5cccc(C(F)(F)F)c5)n4ccn3n2)cc1
RP-LC retention time: 1040 s

CNC(=O)Nc1cccc(-c2ccc(OC)nn2)c1
RP-LC retention time: 631 s
